Data taken from ChEMBL document CHEMBL1201862, “PubChem BioAssay data set” (2004).
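Compound exposure: 48 hours, 5 concentrations, 96-well plates. GI50: concentration for 50% inhibition of growth.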 The source made the active and inactive calls. Cut-off read from the data, not from the text of the source: active = GI50 up to about 1.1 µM and inactive = higher.

Tests used:
Test in all cases: NCI tumour cell line growth inhibition, 48 h
[1] = test system: A498
[2] = test system: A549
[3] = test system: CCRF-CEM
[4] = test system: HCT-116
[5] = test system: HCT-15
[6] = test system: Hs-578T
[7] = test system: KM12
[8] = test system: MOLT-4
[9] = test system: NCI-H226
[10] = test system: OVCAR-3
[11] = test system: OVCAR-4
[12] = test system: OVCAR-5
[13] = test system: SF-268
[14] = test system: SF-295
[15] = test system: SK-MEL-28
[16] = test system: SK-MEL-2
[17] = test system: SNB-19
[18] = test system: SNB-75
[19] = test system: SR

Compound | GI50 [1] | GI50 [2] | GI50 [3] | GI50 [4] | GI50 [5] | GI50 [6] | GI50 [7] | GI50 [8] | GI50 [9] | GI50 [10] | GI50 [11] | GI50 [12] | GI50 [13] | GI50 [14] | GI50 [15] | GI50 [16] | GI50 [17] | GI50 [18] | GI50 [19]
O=C1Sc2cc3ccccc3cc2C(=O)Sc2ccc(Br)cc21 | 19 µM (inactive) | 8.89 µM (inactive) | 1.12 µM (active) | 5.45 µM (inactive) | 2.43 µM | 5.09 µM (inactive) | 7.16 µM (inactive) | 3.55 µM (inactive) | 14.9 µM (inactive) | 1.79 µM (inactive) | 14.6 µM (inactive) | 11.8 µM (inactive) | 6.08 µM (inactive) | 13.1 µM (inactive) | 3.13 µM (inactive) | 4.56 µM (inactive) | 15.2 µM (inactive) | 4.84 µM (inactive) | 2.45 µM (inactive)
COc1ccc(CCNC(=O)CCCCCO)cc1OC | > 100 µM (inactive) | > 100 µM (inactive) | > 100 µM (inactive) | > 100 µM (inactive) | > 100 µM | > 100 µM (inactive) | > 100 µM (inactive) | > 100 µM (inactive) | > 100 µM (inactive) | > 100 µM (inactive) | > 100 µM (inactive) | > 100 µM (inactive) | > 100 µM (inactive) | > 100 µM (inactive) | > 100 µM (inactive) | > 100 µM (inactive) | > 100 µM (inactive) | > 100 µM (inactive) | > 100 µM (inactive)
COc1ccccc1NC(=S)N/N=C/c1c(C)n(C)n(-c2ccccc2)c1=O | 71 µM (inactive) | – | > 100 µM (inactive) | > 100 µM (inactive) | 41.3 µM | 37.8 µM (inactive) | 31.8 µM (inactive) | 41.5 µM (inactive) | 82.4 µM (inactive) | – | > 100 µM (inactive) | – | 45.1 µM (inactive) | 59.3 µM (inactive) | > 100 µM (inactive) | > 100 µM (inactive) | > 100 µM (inactive) | 49 µM (inactive) | 51.6 µM (inactive)
CC(=O)Nc1ccc(-c2nc3ccccc3s2)cc1Cl | 5.68 µM (inactive) | 99.8 µM (inactive) | > 100 µM (inactive) | 58.7 µM (inactive) | 41.4 µM | 17.9 µM (inactive) | 57.4 µM (inactive) | > 83.4 µM (inactive) | 0.762 µM (active) | – | > 100 µM (inactive) | 0.171 µM (active) | 56.8 µM (inactive) | 41.9 µM (inactive) | > 100 µM (inactive) | > 100 µM (inactive) | 67.5 µM (inactive) | 36.7 µM (inactive) | > 100 µM (inactive)
CC12CC(=O)Nc3ccccc3N1C(c1ccccc1)=NO2 (stereo not drawn) | > 100 µM (inactive) | > 100 µM (inactive) | > 100 µM (inactive) | > 100 µM (inactive) | > 100 µM | > 100 µM (inactive) | > 100 µM (inactive) | > 100 µM (inactive) | > 100 µM (inactive) | > 100 µM (inactive) | > 100 µM (inactive) | > 100 µM (inactive) | > 100 µM (inactive) | > 100 µM (inactive) | – | > 100 µM (inactive) | > 100 µM (inactive) | > 100 µM (inactive) | > 100 µM (inactive)
c1ccc2oc(-c3ccc(-c4nc5ccccc5o4)c4c3CC4)nc2c1 | > 100 µM (inactive) | > 100 µM (inactive) | > 100 µM (inactive) | > 100 µM (inactive) | > 100 µM | > 100 µM (inactive) | > 100 µM (inactive) | > 100 µM (inactive) | > 100 µM (inactive) | > 100 µM (inactive) | > 100 µM (inactive) | > 100 µM (inactive) | > 100 µM (inactive) | > 100 µM (inactive) | > 100 µM (inactive) | > 100 µM (inactive) | > 100 µM (inactive) | > 100 µM (inactive) | > 100 µM (inactive)
CCCCOC(=O)C(=O)C(CCC(=O)c1ccc(C)cc1)C(=O)C=C(C)C (stereo not drawn) | > 100 µM (inactive) | > 100 µM (inactive) | > 100 µM (inactive) | > 100 µM (inactive) | > 100 µM | > 100 µM (inactive) | > 100 µM (inactive) | > 100 µM (inactive) | > 100 µM (inactive) | > 100 µM (inactive) | > 100 µM (inactive) | > 100 µM (inactive) | > 100 µM (inactive) | > 100 µM (inactive) | > 100 µM (inactive) | > 100 µM (inactive) | 52.7 µM (inactive) | > 100 µM (inactive) | > 100 µM (inactive)
